In patent publication US10875837B2, “Inhibitors of the fibroblast growth factor receptor” (BLUEPRINT MEDICINES CORPORATION, priority 2013, dated 2020) one finds IC50 data, which are given here for 53 compounds.

A value given as a limit tells only on which side of the number the result lay.

The assay has as its target T1, wild type FGFR-4 (Homo sapiens, UniProt P22455).
T1 construct: purchased Carna Biosciences, Inc
The assay can be described thus: FGFR-4 wild type assay at Km (Caliper electrophoretic mobility shift). The assay is classed as biochemical. The settings on record: wild type FGFR-4, 400 uM ATP, 25 C, 90 minutes; read-out: INH-FGFR4. The method, then:
Biochemical Activity Assessment In order to assess the activity of chemical compounds against the relevant kinase of interest, the Caliper LifeSciences electrophoretic mobility shift technology platform is utilized. Fluorescently labeled substrate peptide is incubated in the presence dosed levels of compounds, a set concentration of kinase and of ATP, so that a reflective proportion of the peptide is phosphorylated. At the end of the reaction, the mix of phosphorylated (product) and non-phosphorylated (substrate) peptides are passed through the microfluidic system of the Caliper LabChip® EZ Reader II, under an applied potential difference. The presence of the phosphate group on the product peptide provides a difference in mass and charge between the product peptide and the substrate peptide, resulting in a separation of the substrate and product pools in the sample. As the pools pass the LEDS within the instrument, these pools are detected and resolved as separate peaks. The ratio between these peaks therefore reflects the activity of the chemical matter at that concentration in that well, under those conditions.
FGFR-4 wild type assay at Km: In each well of a 384-well plate, 0.5 ng/ul of wild type FGFR-4 (Carna Biosciences, Inc.) was incubated in a total of 12.5 ul of buffer (100 mM HEPES pH 7.5, 0.015% Brij 35, 10 mM MgCl2, 1 mM DTT) with 1 uM CSKtide (5-FAM-KKKKEEIYFFFG-NH2) and 400 uM ATP at 25 C for 90 minutes in the presence or absence of a dosed concentration series of compound (1% DMSO final concentration). The reaction was stopped by the addition of 70 ul of Stop buffer (100 mM HEPES pH 7.5, 0.015% Brij 35, 35 mM EDTA and 0.2% of Coating Reagent 3 (Caliper Lifesciences)). The plate was then read on a Caliper LabChip® EZ Reader II (protocol settings: −1.9 psi, upstream voltage −700, downstream voltage −3000, post sample sip 35 s).

T1 sequence (P22455 22-802): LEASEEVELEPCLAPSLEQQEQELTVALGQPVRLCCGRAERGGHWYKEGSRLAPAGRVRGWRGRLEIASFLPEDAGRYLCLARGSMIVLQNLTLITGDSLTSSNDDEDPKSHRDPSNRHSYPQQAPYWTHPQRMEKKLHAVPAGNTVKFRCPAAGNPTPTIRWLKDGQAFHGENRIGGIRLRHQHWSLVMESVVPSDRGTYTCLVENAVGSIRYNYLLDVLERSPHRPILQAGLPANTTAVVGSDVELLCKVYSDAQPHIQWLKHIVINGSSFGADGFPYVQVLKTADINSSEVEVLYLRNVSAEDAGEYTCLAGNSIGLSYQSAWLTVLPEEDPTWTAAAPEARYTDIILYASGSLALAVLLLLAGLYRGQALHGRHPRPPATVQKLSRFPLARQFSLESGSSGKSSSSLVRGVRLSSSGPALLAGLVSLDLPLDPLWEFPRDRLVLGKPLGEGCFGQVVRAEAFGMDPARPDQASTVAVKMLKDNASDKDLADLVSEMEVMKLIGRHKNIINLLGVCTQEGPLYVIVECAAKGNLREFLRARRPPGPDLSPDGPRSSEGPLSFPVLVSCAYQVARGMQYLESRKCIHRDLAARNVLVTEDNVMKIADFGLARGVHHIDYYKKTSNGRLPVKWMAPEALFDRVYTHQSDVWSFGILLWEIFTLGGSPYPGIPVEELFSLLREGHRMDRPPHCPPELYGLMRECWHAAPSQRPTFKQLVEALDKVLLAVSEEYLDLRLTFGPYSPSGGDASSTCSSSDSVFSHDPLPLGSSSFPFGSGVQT

In the case of `C=CC(=O)N[C@H]1CC[C@H](C(N)=O)C[C@H]1Nc1ncc2cc(-c3c(Cl)c(OC)cc(OC)c3Cl)ccc2n1` (racemic) [Compound 72], the IC50 lay in the range of 100 to 1000 nM.
The value for `C=CC(=O)N[C@H]1C[C@H](C(=O)N(C)C)CC[C@H]1Nc1ncc2cc(-c3c(Cl)c(OC)cc(OC)c3Cl)ccc2n1` (racemic) [Compound 87] was 100 to 1000 nM.
With `C#CC(=O)N[C@H]1CCC[C@H]1Nc1ncc2cc(-c3cccnc3)ccc2n1` [Compound 1] the figure was more than 1000 nM; with `C#CC(=O)N[C@H]1CCC[C@H]1Nc1ncc2cc(-c3c(F)ccc(OC)c3F)ccc2n1` [Compound 2, N-((1S,2R)-2-((6-(2,6-difluoro-3-methoxyphenyl)quinazolin-2-yl)amino)cyclopentyl)propiolamide], 10 to 100 nM; with `C#CC(=O)N[C@H]1CCC[C@H]1Nc1ncc2cc(-c3cc(C(N)=O)ccc3Cl)ccc2n1` [Compound 3], 100 to 1000 nM.
As to `C#CC(=O)N[C@H]1CCC[C@H]1Nc1ncc2cc(-c3c(Cl)ccc(OC)c3F)ccc2n1` [Compound 4], the IC50 was in the range of 10 to 100 nM.
The value for `C#CC(=O)N[C@H]1CCC[C@H]1Nc1ncc2cc(-c3c(Cl)ccc(OC)c3Cl)ccc2n1` [Compound 5] was 10 to 100 nM; that for `C#CC(=O)N[C@H]1CCC[C@H]1Nc1ncc2cc(-c3c(F)ccc(OCC)c3Cl)ccc2n1` [Compound 6, N-((1S,2R)-2-((6-(2-chloro-3-ethoxy-6-fluorophenyl)quinazolin-2-yl)amino)cyclopentyl)propiolamide] was 100 to 1000 nM; that for `C#CC(=O)N[C@H]1CCC[C@H]1Nc1ncc2cc(-c3cc(C(=O)NC4CC4)ccc3C)ccc2n1` [Compound 7] was 10 to 100 nM.
In the case of `C=CC(=O)N[C@H]1COCC1Nc1ncc2cc(-c3cc(OC)cc(OC)c3Cl)ccc2n1` (some centres unmarked) [Compound 8], the IC50 lay within 10 to 100 nM.
Consider `C=CC(=O)N[C@H]1CCC[C@H]1Nc1ncc2cc(-c3cc(C(=O)NC4CC4)ccc3C)ccc2n1` [Compound 9], for which the IC50 fell in the range of 100 to 1000 nM.
As to `C#CC(=O)N[C@H]1CCC[C@H]1Nc1ncc2cc(-c3cc(OC)cc(C(=O)NCC)c3)ccc2n1` [Compound 10], the IC50 was more than 1000 nM.
With `C#CC(=O)N[C@H]1CCC[C@H]1Nc1ncc2cc(-c3cc(C(=O)NCC)ccc3Cl)ccc2n1` [Compound 11] the figure was 10 to 100 nM; with `C#CC(=O)N[C@H]1CCC[C@H]1Nc1ncc2cc(-c3cc(C(=O)NOC)ccc3Cl)ccc2n1` [Compound 12], less than 10 nM.
The value for `C#CC(=O)NC1CCC1Nc1ncc2cc(-c3c(Cl)c(OC)cc(OC)c3Cl)ccc2n1` (centres unmarked) [Compound 14] was 10 to 100 nM; that for `C=CC(=O)NC1CCC1Nc1ncc2cc(-c3c(Cl)c(OC)cc(OC)c3Cl)ccc2n1` (centres unmarked) [Compound 15] was 100 to 1000 nM; that for `C#CC(=O)N[C@H]1CCC[C@H]1Nc1ncc2cc(-c3cc(C(=O)NC4CC4)ccc3Cl)ccc2n1` [Compound 16] was 10 to 100 nM.
`CCC(=O)N[C@H]1CCC[C@H]1Nc1ncc2cc(-c3cc(C(=O)NC4CC4)ccc3Cl)ccc2n1` [Compound 17]: the IC50 was more than 1000 nM.
The value for `C#CC(=O)N[C@H]1CCC[C@H]1Nc1ncc2cc(-c3cc(S(=O)(=O)N(C)C)ccc3C)ccc2n1` [Compound 18] was more than 1000 nM.
With `C#CC(=O)N[C@H]1CCC[C@H]1Nc1ncc2cc(-c3cc(C(=O)NOC)c(F)cc3Cl)ccc2n1` [Compound 19], the IC50 lay in the range of 10 to 100 nM.
With `C#CC(=O)N[C@H]1CCC[C@H]1Nc1ncc2cc(-c3c(Cl)c(OC)cc(OC)c3Cl)ccc2n1` [Compound 20] the figure was less than 10 nM.
The value for `C=CC(=O)N[C@@H]1CCC[C@H]1Nc1ncc2cc(-c3c(Cl)c(OC)cc(OC)c3Cl)ccc2n1` [Compound 21] was more than 1000 nM; that for `C=CC(=O)N[C@H]1CCC[C@@H]1Nc1ncc2cc(-c3c(Cl)c(OC)cc(OC)c3Cl)ccc2n1` [Compound 22] was 100 to 1000 nM.
`C=CC(=O)N[C@@H]1CCC[C@@H]1Nc1ncc2cc(-c3c(Cl)c(OC)cc(OC)c3Cl)ccc2n1` [Compound 23]: the IC50 is 100 to 1000 nM.
With `C=CC(=O)NC1CNCC1Nc1ncc2cc(-c3c(Cl)c(OC)cc(OC)c3Cl)ccc2n1` (centres unmarked) [Compound 25] the figure was 10 to 100 nM; with `C#CC(=O)N[C@H]1CCC[C@H]1Nc1ncc2cc(-c3cc(C(=O)NC4CC4)c(F)cc3Cl)ccc2n1` [Compound 30], 10 to 100 nM.
With `C#CC(=O)N[C@H]1CCCC[C@H]1Nc1ncc2cc(-c3c(Cl)c(OC)cc(OC)c3Cl)ccc2n1` [Compound 31] the figure was less than 10 nM; with `C=CC(=O)N[C@H]1CC(=O)C[C@H]1Nc1ncc2cc(-c3c(Cl)c(OC)cc(OC)c3Cl)ccc2n1` [Compound 33], 10 to 100 nM; with `C=CC(=O)N[C@@H]1CCCC[C@@H]1Nc1ncc2cc(-c3c(Cl)c(OC)cc(OC)c3Cl)ccc2n1` [Compound 35], more than 1000 nM.
The value for `C=CC(=O)N[C@H]1CCCC[C@@H]1Nc1ncc2cc(-c3c(Cl)c(OC)cc(OC)c3Cl)ccc2n1` [Compound 36, N-((1S,2S)-2-((6-(2,6-dichloro-3,5-dimethoxyphenyl)quinazolin-2-yl)amino)cyclohexyl)acrylamide] was more than 1000 nM.
In the case of `C=CC(=O)N[C@@H]1CCCC[C@H]1Nc1ncc2cc(-c3c(Cl)c(OC)cc(OC)c3Cl)ccc2n1` [Compound 37], the IC50 was more than 1000 nM.
`C=CC(=O)N[C@H]1CCNC[C@H]1Nc1ncc2cc(-c3c(Cl)c(OC)cc(OC)c3Cl)ccc2n1` [Compound 38]: the IC50 fell in the range of 100 to 1000 nM.
With `C=CC(=O)N[C@@H]1CCNC[C@@H]1Nc1ncc2cc(-c3c(Cl)c(OC)cc(OC)c3Cl)ccc2n1` [Compound 39] the figure was more than 1000 nM; with `C=CC(=O)N[C@H]1C[C@@H](O)C[C@H]1Nc1ncc2cc(-c3c(Cl)c(OC)cc(OC)c3Cl)ccc2n1` [Compound 42], 10 to 100 nM.
With `C=CC(=O)N[C@@H]1CCOC[C@@H]1Nc1ncc2cc(-c3c(Cl)c(OC)cc(OC)c3Cl)ccc2n1` [Compound 43] the figure was 100 to 1000 nM.
The value for `CC#CC(=O)N[C@H]1CCCC[C@H]1Nc1ncc2cc(-c3c(Cl)c(OC)cc(OC)c3Cl)ccc2n1` [Compound 47] was more than 1000 nM; that for `C#CC(=O)N[C@H]1CCC[C@H]1Nc1ncc2cc(-c3c(Cl)c(OC)cc(OC)c3Cl)cc(OC)c2n1` [Compound 48] was less than 10 nM.
Take `C#CC(=O)N[C@H]1CCC[C@H]1Nc1cc2c(cn1)cc(-c1c(Cl)c(OC)cc(OC)c1Cl)c(=O)n2C` [Compound 49]: the IC50 was less than 10 nM.
The value for `C=CC(=O)N[C@H]1CCOC[C@H]1Nc1ncc2c(F)c(-c3c(Cl)c(OC)cc(OC)c3Cl)ccc2n1` [Compound 50] was 10 to 100 nM; that for `C=CC(=O)N[C@H]1CCC[C@H]1Nc1ncc2cc(-c3c(Cl)c(OC)cc(OC)c3Cl)cc(Cl)c2n1` [Compound 53] was 10 to 100 nM.
For `C=CC(=O)N[C@@H]1CN(C(C)=O)C[C@@H]1Nc1ncc2cc(-c3c(Cl)c(OC)cc(OC)c3Cl)ccc2n1` [Compound 57], the IC50 was in the range of 100 to 1000 nM.
Take `C=CC(=O)N[C@@H]1CC(C)(C)OC[C@@H]1Nc1ncc2cc(-c3c(Cl)c(OC)cc(OC)c3Cl)ccc2n1` [Compound 59]: the IC50 lay within 100 to 1000 nM.
With `C=CC(=O)N[C@H]1CC(C)(C)OC[C@H]1Nc1ncc2cc(-c3c(Cl)c(OC)cc(OC)c3Cl)ccc2n1` [Compound 60] the figure was more than 1000 nM; with `C#CC(=O)N[C@H]1Cc2ccccc2[C@H]1Nc1ncc2cc(-c3c(Cl)c(OC)cc(OC)c3Cl)ccc2n1` [Compound 65], 100 to 1000 nM.
As for `C=CS(=O)(=O)N[C@H]1CCCC[C@H]1Nc1ncc2cc(-c3c(Cl)c(OC)cc(OC)c3Cl)ccc2n1` [Compound 66], the IC50 lay in the range of 10 to 100 nM.
With `C=CC(=O)N[C@H]1CCOC[C@H]1Nc1ncc2cc(-c3c(Cl)c(OC)cc(OC)c3Cl)cc(Cl)c2n1` [Compound 67] the figure was less than 10 nM; with `C#CC(=O)N[C@H]1CCCC[C@H]1Nc1cc2c(cn1)cc(-c1c(Cl)c(OC)cc(OC)c1Cl)c(=O)n2CC` [Compound 68], less than 10 nM.
With `C=CC(=O)N[C@@H]1CCN(C(C)=O)C[C@@H]1Nc1ncc2cc(-c3c(Cl)c(OC)cc(OC)c3Cl)ccc2n1` [Compound 69] the figure was 100 to 1000 nM; with `C=CC(=O)N[C@H]1CCN(C(C)=O)C[C@H]1Nc1ncc2cc(-c3c(Cl)c(OC)cc(OC)c3Cl)ccc2n1` [Compound 70], 100 to 1000 nM; with `C=CC(=O)NC1CN(C(C)=O)CCC1Nc1ncc2cc(-c3c(Cl)c(OC)cc(OC)c3Cl)ccc2n1` (centres unmarked) [Compound 71], 10 to 100 nM.
The value for `C=CC(=O)N[C@H]1C[C@@H](C(=O)OC)C[C@H]1Nc1ncc2cc(-c3c(Cl)c(OC)cc(OC)c3Cl)ccc2n1` [Compound 73] was 10 to 100 nM.
With `C=CC(=O)N[C@H]1CCCC[C@H]1Nc1ncc2nc(-c3c(Cl)c(OC)cc(OC)c3Cl)c(=O)n(CC)c2n1` [Compound 78], the IC50 was in the range of 100 to 1000 nM.
The value for `C=CC(=O)NC1CCS(=O)(=O)CC1Nc1ncc2cc(-c3c(Cl)c(OC)cc(OC)c3Cl)ccc2n1` (centres unmarked) [Compound 79] was 10 to 100 nM.
